In ChEMBL document CHEMBL5346920, “Development of the "hidden" multi-target-directed ligands by AChE/BuChE for the treatment of Alzheimer's disease” (Eur J Med Chem, 2023):
The source made the active and inactive calls. No cut-off for these calls is given here.

Assays:
[1] = organism: Homo sapiens; test: Selectivity index, ratio of IC50 for inhibition of human recombinant MAO-A expressed in baculovirus-infected BTI cells to IC50 for inhibition of human recombinant MAO-B expressed in baculovirus-infected BTI cells
[2] = target: T1, Amine oxidase [flavin-containing] A (Homo sapiens, UniProt P21397); test: Inhibition of human recombinant MAO-A expressed in baculovirus-infected BTI cells using kynuramine as substrate incubated for 30 mins by fluorescence based analysis
T1 sequence (P21397 whole entry): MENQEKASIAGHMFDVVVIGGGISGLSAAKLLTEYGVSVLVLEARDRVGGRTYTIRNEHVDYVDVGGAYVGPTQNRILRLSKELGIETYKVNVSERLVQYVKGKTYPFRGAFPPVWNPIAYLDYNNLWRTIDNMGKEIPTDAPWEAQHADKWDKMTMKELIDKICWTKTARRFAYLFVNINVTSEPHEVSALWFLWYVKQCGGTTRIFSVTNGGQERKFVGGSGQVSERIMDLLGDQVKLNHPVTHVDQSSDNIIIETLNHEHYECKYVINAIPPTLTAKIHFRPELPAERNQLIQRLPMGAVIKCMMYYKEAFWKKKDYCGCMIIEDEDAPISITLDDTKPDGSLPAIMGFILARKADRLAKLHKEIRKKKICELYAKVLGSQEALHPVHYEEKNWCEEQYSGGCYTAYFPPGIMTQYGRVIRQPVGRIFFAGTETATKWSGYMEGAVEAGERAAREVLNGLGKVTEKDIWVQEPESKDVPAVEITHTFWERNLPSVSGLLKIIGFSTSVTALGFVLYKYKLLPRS

[3] = target: T2, Amine oxidase [flavin-containing] B (Homo sapiens, UniProt P27338); test: Inhibition of human recombinant MAO-B expressed in baculovirus-infected BTI cells using kynuramine as substrate incubated for 30 mins by fluorescence based analysis
T2 sequence (P27338 whole entry): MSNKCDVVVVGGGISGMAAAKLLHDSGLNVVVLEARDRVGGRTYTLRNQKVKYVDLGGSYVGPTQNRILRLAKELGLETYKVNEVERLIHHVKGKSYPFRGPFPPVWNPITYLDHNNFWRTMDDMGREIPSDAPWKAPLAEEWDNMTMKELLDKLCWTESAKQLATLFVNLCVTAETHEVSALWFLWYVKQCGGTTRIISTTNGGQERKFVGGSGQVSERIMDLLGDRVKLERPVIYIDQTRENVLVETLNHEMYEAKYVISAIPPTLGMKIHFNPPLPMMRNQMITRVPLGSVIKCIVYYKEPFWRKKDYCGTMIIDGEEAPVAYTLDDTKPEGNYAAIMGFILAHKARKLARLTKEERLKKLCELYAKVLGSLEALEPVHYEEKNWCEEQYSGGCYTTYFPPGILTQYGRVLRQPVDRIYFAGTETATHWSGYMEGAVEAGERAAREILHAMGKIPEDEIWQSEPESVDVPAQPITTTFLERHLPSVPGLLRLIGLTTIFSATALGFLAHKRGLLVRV

[4] = target: T1, Amine oxidase [flavin-containing] A; test: Inhibition of human recombinant MAO-A expressed in baculovirus-infected BTI cells using kynuramine as substrate at 62.5 uM incubated for 30 mins by fluorescence based analysis; conditions: 0.5 h
[5] = target: Amyloid-beta precursor protein (Homo sapiens) (UniProt P05067); test: Inhibition of self-induced Amyloid beta (1 to 42) (unknown origin) aggregation at 25 uM incubated for 24 hrs by thioflavin T-based fluorescence analysis
[6] = tested on: BV-2; test: Anti-inflammatory activity against LPS-stimulated mouse BV-2 cells assessed as inhibition of LPS-induced NO production incubated for 24 hrs in presence of LPS; assay type: functional, cell-based; conditions: dose 1-9 µM
[7] = tested on: PC-12; test: Neuroprotective activity against Amyloid beta(25 to 35)-induced cell injury in rat PC12 cells assessed as increase in cell viability pretreated for 2 hrs followed by incubation with Abeta(25 to 35) for 24 hrs by CCK-8 assay; assay type: functional, cell-based; conditions: dose 5-20 µM, time 26.0 hrs
[8] = tested on: BV-2; test: Anti-inflammatory activity against LPS-stimulated mouse BV-2 cells assessed as inhibition of LPS-induced IL-6 production incubated for 24 hrs in presence of LPS; assay type: functional, cell-based; conditions: dose 1-9 µM
[9] = tested on: BV-2; test: Anti-inflammatory activity against LPS-stimulated mouse BV-2 cells assessed as inhibition of LPS-induced IL-1 beta production incubated for 24 hrs in presence of LPS; assay type: functional, cell-based; conditions: dose 1-9 µM
[10] = tested on: BV-2; test: Cytotoxicity against mouse BV-2 cells assessed as reduction in cell viability at 10 uM by CCK8 assay; assay type: toxicity, cell-based; conditions: bv-2, 10 µM
[11] = tested on: PC-12; test: Cytotoxicity against rat PC-12 cells assessed as cell viability at 40 uM by CCK-8 assay; assay type: toxicity, cell-based; conditions: pc-12, 40 µM
[12] = Cytotoxicity against mouse BV-2 cells assessed as cell viability at 30 uM by CCK8 assay; assay type: toxicity, cell-based; conditions: BV-2 cells, read-out: Activity
[13] = target: Acetylcholinesterase (Electrophorus electricus, UniProt O42275); test: Inhibition of electric eel AChE using acetylthiocholine chloride as substrate by Ellman's method
[14] = Selectivity index, ratio of IC50 for inhibition of electric eel AChE to IC50 for inhibition of equine serum BuChE
[15] = target: Cholinesterase (Equus caballus, UniProt P81908); test: Inhibition of equine serum BuChE using butyrylthiocholine chloride as substrate by Ellman's method; assay type: cell-free
[16] = tested on: BV-2; test: Anti-inflammatory activity against LPS-stimulated mouse BV-2 cells assessed as inhibition of LPS-induced IL-1 beta production by measuring IL-beta level at 3 uM incubated for 24 hrs in presence of LPS (reference value: 221.3 pg/ml); assay type: functional
[17] = tested on: BV-2; test: Anti-inflammatory activity against LPS-stimulated mouse BV-2 cells assessed as inhibition of LPS-induced IL-6 production by measuring IL-6 level at 3 uM incubated for 24 hrs in presence of LPS (reference value: 1503.2 pg/ml); assay type: functional
[18] = tested on: BV-2; test: Anti-inflammatory activity against LPS-stimulated mouse BV-2 cells assessed as inhibition of LPS-induced IL-6 production by measuring IL-6 level at 1 uM incubated for 24 hrs in presence of LPS (reference value: 1503.2 pg/ml); assay type: functional
[19] = tested on: BV-2; test: Anti-inflammatory activity against LPS-stimulated mouse BV-2 cells assessed as inhibition of LPS-induced IL-1 beta production by measuring IL-beta level at 1 uM incubated for 24 hrs in presence of LPS (reference value: 221.3 pg/ml); assay type: functional
[20] = tested on: PC-12; test: Neuroprotective activity against Amyloid beta(25 to 35)-induced cell injury in rat PC12 cells assessed as cell viability at 20 uM pretreated for 2 hrs followed by incubation with Abeta(25 to 35) for 24 hrs by CCK-8 assay (reference value: 41 to 58.6%); assay type: functional; conditions: time 26 hrs, read-out: Activity
[21] = tested on: PC-12; test: Neuroprotective activity against Amyloid beta(25 to 35)-induced cell injury in rat PC12 cells assessed as cell viability at 10 uM pretreated for 2 hrs followed by incubation with Abeta(25 to 35) for 24 hrs by CCK-8 assay (reference value: 41 to 58.6%); assay type: functional; conditions: time 26 hrs, read-out: Activity
[22] = tested on: BV-2; test: Anti-inflammatory activity against LPS-stimulated mouse BV-2 cells assessed as inhibition of LPS-induced IL-6 production by measuring IL-6 level at 9 uM incubated for 24 hrs in presence of LPS (reference value: 1503.2 pg/ml); assay type: functional
[23] = tested on: BV-2; test: Anti-inflammatory activity against LPS-stimulated mouse BV-2 cells assessed as inhibition of LPS-induced IL-1 beta production by measuring IL-beta level at 9 uM incubated for 24 hrs in presence of LPS (reference value: 221.3 pg/ml); assay type: functional
[24] = tested on: PC-12; test: Neuroprotective activity against Amyloid beta(25 to 35)-induced cell injury in rat PC12 cells assessed as cell viability at 5 uM pretreated for 2 hrs followed by incubation with Abeta(25 to 35) for 24 hrs by CCK-8 assay (reference value: 41 to 58.6%); assay type: functional; conditions: time 26 hrs, read-out: Activity
[25] = target: Acetylcholinesterase (Electrophorus electricus) (UniProt O42275); test: Reversible inhibition of electric eel AChE assessed as enzyme activity using acetylthiocholine iodide as substrate measured after dilution to 0.1XIC50 for 120 mins by Ellman's method; parameters: scale not given: the % may be the effect or the level left
[26] = target: Cholinesterase (Equus caballus) (UniProt P81908); test: Reversible inhibition of equine serum BuChE assessed as enzyme activity using butyrylthiocholine chloride as substrate measured after dilution to 0.1XIC50 for 240 mins by Ellman's method; assay type: cell-free; parameters: scale not given: the % may be the effect or the level left
[27] = Metal chelating activity assessed as compound-Cu2+ complex formation by measuring inhibition of Cu2+-induced amyloid beta (1 to 42) aggregation at 25 uM by thioflavin T-based fluorescence analysis
[28] = Metal chelating activity assessed as compound-Cu2+ complex formation by measuring small fiber aggregates incubated for 24 hrs by transmission electron microscopy
[29] = Permeability of the compound at 100 ug/ml incubated for 18 hrs by PAMPA assay; assay type: ADME; conditions: dose 100 µg/ml, read-out: permeability

Sequence of Acetylcholinesterase (O42275 whole entry): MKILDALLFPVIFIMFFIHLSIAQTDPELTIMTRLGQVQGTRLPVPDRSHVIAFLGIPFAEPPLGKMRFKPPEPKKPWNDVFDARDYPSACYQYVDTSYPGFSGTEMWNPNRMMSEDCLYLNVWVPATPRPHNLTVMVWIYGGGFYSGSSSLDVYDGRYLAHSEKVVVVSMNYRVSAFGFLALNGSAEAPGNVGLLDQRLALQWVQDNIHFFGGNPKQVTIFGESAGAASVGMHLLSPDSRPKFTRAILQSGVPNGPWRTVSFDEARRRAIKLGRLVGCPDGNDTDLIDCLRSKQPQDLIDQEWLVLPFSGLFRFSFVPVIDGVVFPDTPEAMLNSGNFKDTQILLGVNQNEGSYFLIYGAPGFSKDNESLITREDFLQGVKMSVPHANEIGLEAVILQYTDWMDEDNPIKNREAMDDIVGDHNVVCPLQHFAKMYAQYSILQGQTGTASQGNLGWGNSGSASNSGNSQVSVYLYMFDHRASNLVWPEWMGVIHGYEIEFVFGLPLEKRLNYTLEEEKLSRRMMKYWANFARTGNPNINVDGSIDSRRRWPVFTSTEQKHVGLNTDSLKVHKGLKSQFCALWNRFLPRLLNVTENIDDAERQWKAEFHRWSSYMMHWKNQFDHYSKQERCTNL
Sequence of Cholinesterase (P81908 whole entry): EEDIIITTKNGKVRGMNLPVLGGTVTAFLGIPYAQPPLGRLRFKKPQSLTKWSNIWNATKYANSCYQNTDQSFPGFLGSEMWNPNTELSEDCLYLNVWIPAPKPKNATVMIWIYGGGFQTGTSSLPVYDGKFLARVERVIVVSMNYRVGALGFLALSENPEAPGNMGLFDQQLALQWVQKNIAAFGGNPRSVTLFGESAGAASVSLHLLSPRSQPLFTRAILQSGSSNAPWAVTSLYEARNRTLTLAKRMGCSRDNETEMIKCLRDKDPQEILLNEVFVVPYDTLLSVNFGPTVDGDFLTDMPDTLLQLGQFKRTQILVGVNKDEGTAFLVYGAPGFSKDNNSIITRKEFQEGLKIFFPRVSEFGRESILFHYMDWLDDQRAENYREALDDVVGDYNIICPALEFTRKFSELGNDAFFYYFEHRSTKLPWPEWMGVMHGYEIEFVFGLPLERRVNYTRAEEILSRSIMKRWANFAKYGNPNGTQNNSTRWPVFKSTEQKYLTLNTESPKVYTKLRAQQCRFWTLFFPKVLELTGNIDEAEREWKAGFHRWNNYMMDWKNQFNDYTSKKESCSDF
Sequence of Amyloid-beta precursor protein (Homo sapiens) (P05067 whole entry): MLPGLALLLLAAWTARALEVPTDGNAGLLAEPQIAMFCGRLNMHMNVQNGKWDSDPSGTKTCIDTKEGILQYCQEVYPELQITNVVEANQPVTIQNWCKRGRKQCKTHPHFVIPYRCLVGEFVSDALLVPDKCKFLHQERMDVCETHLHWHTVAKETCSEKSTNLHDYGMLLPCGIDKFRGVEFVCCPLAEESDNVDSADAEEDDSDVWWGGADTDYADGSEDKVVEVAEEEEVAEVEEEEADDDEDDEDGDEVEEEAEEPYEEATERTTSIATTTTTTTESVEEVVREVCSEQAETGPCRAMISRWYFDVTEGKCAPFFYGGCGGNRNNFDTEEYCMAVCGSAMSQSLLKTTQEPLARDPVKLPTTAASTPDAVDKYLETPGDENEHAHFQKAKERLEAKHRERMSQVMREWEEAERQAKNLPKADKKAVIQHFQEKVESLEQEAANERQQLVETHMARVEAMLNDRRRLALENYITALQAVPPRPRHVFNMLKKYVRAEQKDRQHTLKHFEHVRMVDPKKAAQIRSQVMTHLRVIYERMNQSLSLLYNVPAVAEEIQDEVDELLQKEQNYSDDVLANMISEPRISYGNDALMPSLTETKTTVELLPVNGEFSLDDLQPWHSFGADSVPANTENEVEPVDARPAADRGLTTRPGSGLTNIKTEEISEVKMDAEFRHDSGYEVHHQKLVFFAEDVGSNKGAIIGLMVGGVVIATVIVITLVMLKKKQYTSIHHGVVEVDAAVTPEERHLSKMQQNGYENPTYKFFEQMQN
Sequence of Cholinesterase (Equus caballus) (P81908 whole entry): as the sequence (P81908 whole entry) above
Sequence of Acetylcholinesterase (Electrophorus electricus) (O42275 24-633 limits assumed): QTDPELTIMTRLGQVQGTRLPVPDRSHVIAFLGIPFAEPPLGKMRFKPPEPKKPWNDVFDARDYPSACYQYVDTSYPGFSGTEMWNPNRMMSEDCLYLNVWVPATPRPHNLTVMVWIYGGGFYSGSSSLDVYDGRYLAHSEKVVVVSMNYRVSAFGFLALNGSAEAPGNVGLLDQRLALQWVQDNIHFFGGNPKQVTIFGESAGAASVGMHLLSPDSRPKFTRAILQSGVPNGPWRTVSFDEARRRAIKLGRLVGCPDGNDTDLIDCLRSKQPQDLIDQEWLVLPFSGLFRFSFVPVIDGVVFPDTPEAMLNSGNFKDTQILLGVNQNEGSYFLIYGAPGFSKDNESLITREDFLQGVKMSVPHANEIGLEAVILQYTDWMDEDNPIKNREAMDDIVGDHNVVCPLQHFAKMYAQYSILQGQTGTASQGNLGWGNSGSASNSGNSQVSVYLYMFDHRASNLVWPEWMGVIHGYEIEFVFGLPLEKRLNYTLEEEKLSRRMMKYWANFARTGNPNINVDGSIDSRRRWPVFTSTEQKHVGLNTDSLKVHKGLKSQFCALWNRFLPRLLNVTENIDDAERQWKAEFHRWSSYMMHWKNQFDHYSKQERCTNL

## O=C(/C=C/c1cccc(O)c1)c1ccccc1O
[1]
  Ratio IC50: 29.9
[2]
  IC50: 50.9 µM
[3]
  IC50: 1.7 µM

## O=C(/C=C/c1cc2ccccc2c2ccccc12)c1ccccc1O
[3]
  IC50: 76.8 µM
[4]
  inhibition at 62.5 µM: < 15%

## O=C(/C=C/c1c(Br)cccc1Br)c1ccccc1O
[3]
  IC50: 60.3 µM
[4]
  inhibition at 62.5 µM: < 15%

## COc1ccc2cc(/C=C/C(=O)c3ccccc3O)ccc2c1
[3]
  IC50: 78.4 µM
[4]
  inhibition at 62.5 µM: < 15%

## O=C(/C=C/c1ccc(Cl)cc1)c1ccccc1O
[1]
  Ratio IC50: 7.7
[2]
  IC50: 78.8 µM
[3]
  IC50: 10.3 µM

## COc1ccccc1/C=C/C(=O)c1ccccc1O
[3]
  IC50: 5.9 µM
[4]
  inhibition at 62.5 µM: < 15%

## COc1ccc(/C=C/C(=O)c2ccccc2O)cc1
[5]
  inhibition: 61.1%
[1]
  Ratio IC50: 40.9
[6]
  Activity: Dose-Dependent Effect
[7]
  Activity: Dose-Dependent Effect
[2]
  IC50: 53.2 µM
[3]
  IC50: 1.3 µM
[8]
  Activity: Dose-Dependent Effect
[9]
  Activity: Dose-Dependent Effect
[10]
  Activity: Non-Toxic
[11]
  Activity: Non-Toxic
[12]
  viability at 30 µM: 78.9%

## CCN(CC)C(=O)Oc1ccccc1C(=O)/C=C/c1ccc(F)cc1
[13]
  IC50: 11.2 µM
[14]
  Ratio IC50: 0.59
[1]
  Ratio IC50: 24.9
[6]
  Activity: Dose-Dependent Effect
[7]
  Activity: Dose-Dependent Effect
[15]
  IC50: 18.9 µM
[2]
  IC50: 52.3 µM
[3]
  IC50: 2.1 µM
[8]
  Activity: Dose-Dependent Effect
[9]
  Activity: Dose-Dependent Effect
[10]
  Activity: Non-Toxic
[11]
  Activity: Non-Toxic

## O=C(/C=C/c1ccc(O)cc1)c1ccccc1O
[5]
  inhibition: 80.7%
[16]
  Activity: 77.6 pg/mL
[1]
  Ratio IC50: 82.6
[6]
  Activity: Dose-Dependent Effect
[17]
  Activity: 489.3 pg/mL
[18]
  Activity: 763.2 pg/mL
[2]
  IC50: 66.1 µM
[19]
  Activity: 147.6 pg/mL
[3]
  IC50: 0.8 µM
[20]
  viability at 20 µM: 94.6%
[21]
  viability at 10 µM: 91%
[22]
  Activity: 337.5 pg/mL
[23]
  Activity: 50.9 pg/mL
[24]
  viability at 5 µM: 88.9%
[10]
  Activity: Non-Toxic
[11]
  Activity: Non-Toxic
[12]
  viability at 30 µM: 71.5%

## CCN(C)C(=O)Oc1cccc([C@H](C)N(C)C)c1
[25]
  Activity: 94.7%
[26]
  Activity: 81.2%

## CN(C)C(=O)Oc1ccccc1C(=O)/C=C/c1ccc(F)cc1
[13]
  IC50: 8.7 µM
[14]
  Ratio IC50: 1.4
[1]
  Ratio IC50: 11.7
[6]
  Activity: Dose-Dependent Effect
[7]
  Activity: Dose-Dependent Effect
[15]
  IC50: 6.3 µM
[2]
  IC50: 31.5 µM
[3]
  IC50: 2.7 µM
[8]
  Activity: Dose-Dependent Effect
[9]
  Activity: Dose-Dependent Effect
[10]
  Activity: Non-Toxic
[11]
  Activity: Non-Toxic

## COc1cccc(/C=C/C(=O)c2ccccc2O)c1
[1]
  Ratio IC50: 10.5
[2]
  IC50: 35.7 µM
[3]
  IC50: 3.4 µM

## COc1ccc(Br)cc1/C=C/C(=O)c1ccccc1O
[3]
  IC50: 27.5 µM
[4]
  inhibition at 62.5 µM: < 15%

## O=C(/C=C/c1ccccc1F)c1ccccc1O
[3]
  IC50: 12.6 µM
[4]
  inhibition at 62.5 µM: < 15%

## COc1cc(/C=C/C(=O)CC(=O)/C=C/c2ccc(O)c(OC)c2)ccc1O [CURCUMIN]
[27]
  inhibition: 53.5%
[20]
  viability at 20 µM: 85.5%
[21]
  viability at 10 µM: 76.3%
[28]
  Activity: Active
[24]
  viability at 5 µM: 62.5%
[11]
  Activity: Non-Toxic

## O=C(/C=C/c1ccc(Br)cc1OC(F)(F)F)c1ccccc1O
[1]
  Ratio IC50: 22.9
[2]
  IC50: 59.3 µM
[3]
  IC50: 2.6 µM

## CCn1cc(C(=O)O)c(=O)c2cc(F)c(N3CCNCC3)cc21 [NORFLOXACIN]
[29]
  Papp at 18 h, 100 ug/ml: 0.21 ×10⁻⁶ cm/s

## O=C(/C=C/c1ccc2ccccc2c1Br)c1ccccc1O
[3]
  IC50: 2.8 µM
[4]
  inhibition at 62.5 µM: < 15%

## O=C(/C=C/c1c(F)cccc1Br)c1ccccc1O
[3]
  IC50: 4.7 µM
[4]
  inhibition at 62.5 µM: < 15%
